Data on 1 molecule can be found in PMC4980838 (European journal of medicinal chemistry, 2010).

Structures are written as SMILES.

The subject of test [1] is human HT-29 colon tumor cell line. Nature of the test: Tumor cell growth inhibition, HT-29. Conditions: HT-29, 72 h, read-out: Growth inhibition IC50. In kind it is cell-based.
In test [2] the target is recombinant human PDE5 enzyme (Homo sapiens, UniProt O76074). Briefly: Phosphodiesterase assay. In kind it is biochemical.

Usually IC50 stands for the concentration needed to halve the response being measured. `COC(=O)[C@@H]1Cc2c([nH]c3ccccc23)[C@@H](c2ccccc2Br)N1C(=O)CCl` [Compound 6d, Methyl (1R,3S)-1-(2-bromophenyl)-2-(2-chloroacetyl)-2,3,4,9-tetrahydro-1H-β-carboline-3-carboxylate]: the IC50 in test [1] came to 1600 nM. Moreover, the “PDE5 inhibitory activity (in words)” value in test [2] was “did not show PDE5 inhibitory activity”.
